# Experimental data as given in US20160136229A1, “MATERIALS FOR POSITIVE CATHEPSIN B MODULATION AND METHODS OF USE FOR TREATING MILD COGNITIVE IMPAIRMENT (MCI), EARLY DEMENTIA, A-SYNUCLEINOPATHY, TRAUMATIC BRAIN INJURY, CARDIOMYOPATHY, EYE DISEASE AND SKIN DAMAGE” (University of North Carolina at Pembroke, priority 2013, published 2016).
# What was measured:
# Aβ1-42 peptide = details: cited from earlier work
# human α-synuclein = assay: Human α-synuclein clearance in A53T transgenic mice; assay type: in vivo, mouse; details: i.p., 18 mg/kg/day, p=0.01 vs vehicle-treated A53T mice
# Procedure: (§1) FIG. 4. Enhancing lysosome efficiency with the cathepsin B modulator PADK leads to reductions of multiple types of proteinopathy-related accumulation events. […] Age-matched wild-type mice (wt) and 9-10-month mutant human APP mice, a model of early dementia, treated with or without PADK were assessed for the 4-kDa Δβ peptide, the active form of cathepsin B (act CB), and other proteins in hippocampal samples (C). Similar treatment groups used another APP mouse model at 20-22 months of age to measure clearance of APP carboxyterminal fragments APP-αCTF and APP-βCTF (D). Rat hippocampal slice cultures from the untreated control group (con) and slices treated with submicromolar Δβ42 (early tauopathy model) in the absence or presence of PADK (5 μM for 4 days) were assessed for phosphorylated tau (pTau) and other proteins (E). For a model of early α-synucleinopathy, human A53T α-synuclein transgenic mice, at 7 months old, were studied with or without PADK treatment and assessed for human α-synuclein (α-syn) in TX-100 extracts of hippocampus and for other proteins in hippocampal homogenates (F). Plotted data (±SEM) were compared to neighboring vehicle groups by unpaired t-tests: *p=0.02, **p<0.01, ***p<0.001. APPswind and APP-PS1 mice are described in Butler et al., (2011), the entire content of which is hereby incorporated herein by reference.
# FIG. 6. […]
# [1] = target: T1, 30-kDa active form of cathepsin B (Rattus norvegicus, UniProt P00787); assay: Immunoblot of active cathepsin B in brain region homogenates of Fischer rats; assay type: in vivo; details: hippocampal and neocortical homogenates; 27 mg/kg daily, 9 days of injections
# T1 construct: assessed by immunoblot to label the 30-kDa active form of cathepsin B; from tissue; host or cells: Fischer rat brain regions (A5); rat brain regions, eye and skin after oral dosing (A18); rat organotypic heart slice cultures (A17)
# Procedure: FIG. 3. Lysosomal modulator PADK dramatically up-regulates active cathepsin B levels in middle-aged Fischer rats, a model of MCI. The female rats were injected daily with vehicle (veh) or 27 mg/kg PADK for 9 days. Brain regions were dissected, homogenates prepared, and equal protein aliquots were assessed by immunoblot to label the 30-kDa active form of cathepsin B as well as actin load controls (A). The hippocampal homogenate samples were also stained for the postsynaptic marker GluR1 to assess for synaptic recovery in correspondence to cathepsin B regulation (A, lower blots).
# Brains were removed from the Fischer rats after the behavior studies in order to assess cathepsin B and synaptic marker levels. […] Cathepsin B immunoreactivity was increased 4- to 8-fold in hippocampal as well as neocortical homogenates, while non-lysosomal proteins remained unchanged (gel load controls). In addition to the correspondence with improved memory, there is evidence that the lysosomal modulation corresponds with synaptic recovery, assessing the postsynaptic marker GluR1 in hippocampus (FIG. 3A lower blots, and FIG. 3C). Without wishing to be bound by any scientific theory, the results support the hypothesis that lysosomal enhancement offsets the age-related cascade of microtubule destabilization, transport failure, synaptic decline, and cognitive impairment. […]
# PHF-tau = details: cited from earlier work
# active cathepsin = target: T2, active cathepsin (Mus musculus, UniProt P10605); assay: Active cathepsin in brain samples of PADK-injected C57BL/6 mice; assay type: in vivo; details: ip daily for 9 days
# T2 construct: from tissue; host or cells: brain and CNS regions of mice (PADK-treated mice, A53T transgenic and wild-type mice, C57BL/6 mice)
# [2] = test system: phosphorylated tau (pTau); assay: pTau in Aβ42-treated rat hippocampal slice cultures (early tauopathy model); assay type: cell-based; details: 5 μM for 4 days
# Procedure: as §1, with “reference. […]” for “reference.”
# [3] = low-level PADK, hippocampal slice model of protein accumulation
# T2 sequence (P10605 80-333 limits assumed): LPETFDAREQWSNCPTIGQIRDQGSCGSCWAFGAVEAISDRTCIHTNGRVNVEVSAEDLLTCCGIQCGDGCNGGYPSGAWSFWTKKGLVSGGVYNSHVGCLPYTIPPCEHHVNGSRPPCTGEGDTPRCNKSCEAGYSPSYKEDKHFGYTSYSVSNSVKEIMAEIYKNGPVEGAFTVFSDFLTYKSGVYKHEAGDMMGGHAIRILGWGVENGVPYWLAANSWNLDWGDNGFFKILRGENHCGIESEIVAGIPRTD
# T1 sequence (P00787 80-333 limits assumed): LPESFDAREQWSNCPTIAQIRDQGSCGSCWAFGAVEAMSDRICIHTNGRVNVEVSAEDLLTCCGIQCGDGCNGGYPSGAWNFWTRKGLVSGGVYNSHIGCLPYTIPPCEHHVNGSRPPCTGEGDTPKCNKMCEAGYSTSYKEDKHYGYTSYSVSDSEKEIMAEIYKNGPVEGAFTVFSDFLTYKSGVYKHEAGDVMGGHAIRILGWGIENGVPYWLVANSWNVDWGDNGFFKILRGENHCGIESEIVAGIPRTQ
structure (smiles),measurement,setting,value
"C[C@H](NC(=O)[C@H](Cc1ccccc1)NC(=O)OCc1ccccc1)C(=O)C=[N+]=[N-] [PADK, N-carbobenzyloxy-L-phenylalanyl-L-alanyl-diazomethylketone]",extracellular Aβ deposits,Aβ1-42 peptide; AD mouse models,significantly reduced
same,truncated Aβ38,Aβ1-42 peptide; AD transgenic mice,increase
same,synaptic integrity and cognitive ability,Aβ1-42 peptide; AD transgenic mouse models,improved
same,intracellular Aβ1-42 peptide in the hippocampus and other brain regions,Aβ1-42 peptide; two different transgenic mouse models of AD,reduced
same,active form of cathepsin B,Aβ1-42 peptide; two mouse models of AD,markedly up-regulated
same,human α-synuclein levels,human α-synuclein,decrease
same,Cathepsin B immunoreactivity increase,[1],4- to 8 fold
same,"microtubule stability markers, transport function, and synaptic proteins",PHF-tau; following PADK-mediated tau clearance,recovery
same,PHF-tau,PHF-tau; [3],attenuates
same,synaptic decline,PHF-tau; [3],attenuates
same,tau aggregates and tau-related pathology,PHF-tau; when CatB activity was increased with PADK,Reduction
same,active cathepsin in brain samples,active cathepsin,dose-dependent increase
same,pTau accumulation,[2],significant decrease
same,synaptic protection,[2],evidence of synaptic protection
